The source of these data is patent US11649245B2, “Cyclopropylamine compound as LSD1 inhibitor and use thereof” (HELIOEAST PHARMACEUTICAL CO., LTD., priority 2018, dated 2023).

The test system of the assay is human small cell lung cancer NCI-H1417 xenograft tumor model. Briefly: In vivo pharmacodynamic study on NCI-H1417 subcutaneous xenograft tumor in CB-17 SCID mice. As to conditions: compound 6 hydrochloride 1.5 mg/kg oral once a day, cisplatin 1 mg/kg i.p. twice a week. The procedure:
The purpose of the experiment was to evaluate the in vivo efficacy of the compounds of the present disclosure on subcutaneous xenograft tumor of human small cell lung cancer NCI-H1417 cells in a CB-17 SCID mouse model.
Human small cell lung cancer NCI-H1417 cells (ATCC) were cultured in vitro in a single layer, the culture conditions were RPMI-1640 culture medium supplemented with 10% fetal bovine serum, 37° C. 5% CO2. When the cell saturation reached 80%-90%, the cells were collected, counted, and inoculated.
0.2 mL of 10×10^6 NCI-H1417 cells were subcutaneously inoculated into the right back of each mouse (PBS: Matrigel=1:1). Group administration was started when the average volume reached 100-150 mm^3.
The vehicle used in the experiment was 0.5% methylcellulose solution, the preparation method was: 5 g of methylcellulose was weighed and dissolved in 800 mL ultrapure water, stirred evenly and made up to 1000 mL with ultrapure water. The test substance was dissolved in a solvent and prepared into a uniform solution of a certain concentration, and stored at 4° C.
Cisplatin (Cisplatin, manufacturer Qilu Pharmaceutical Co., Ltd., 10 mg/bottle freeze-dried powder for injection, lot number 7D011A8) was added to 10 mL 0.9% NaCl to make a 1 mg/mL mother liquor, and stored at room temperature and protected from light. The mother liquor was aliquoted into 0.63 mL and stored at room temperature. 5.67 mL 0.9% NaCl was added to one of the 0.63 mL mother liquor to make a 0.1 mg/mL solution.
The experimental indicator is to investigate whether tumor growth was inhibited, delayed, or cured. Tumor diameters were measured with a vernier caliper twice a week. The tumor volume was calculated by the calculation formula: V=0.5a×b^2, a and b respectively represent the long and short diameters of the tumor.
The anti-tumor effect of the compounds was evaluated by TGI (%). TGI (%) can reflect the tumor growth inhibition rate. TGI (%) calculation: TGI (%)=[1-(the average tumor volume at the end of the administration in a treatment group—the average tumor volume at the beginning of the administration in the treatment group)/(the average tumor volume at the end of the treatment of the solvent control group—the average tumor volume at the beginning of the treatment of the solvent control group)]×100%.

For the molecule `N.N.[Cl][Pt][Cl]` [Cisplatin, reference compound], under “CB-17 SCID mice”, the “Tumor volume mean ± SEM (28th day)” value amounted to 165 ± 22 mm^3. In addition, the TGI (tumor growth inhibition rate, 28th day) is 85.9%.

For orientation: TGI means how far tumour growth fell short of that in controls. Higher therefore signals much slowing of growth.
